Source: article PMC7862507, “Adrenomedullin for steroid-resistant ulcerative colitis: a randomized, double-blind, placebo-controlled phase-2a clinical trial” (Journal of Gastroenterology, 2020)

Test system: patients with steroid-resistant UC
Assay: Adverse events, safety assessment
Details: for Decrease of blood pressure (cardiovascular disorders) / Flushing (cardiovascular disorders) / Gastrointestinal disorders / Head disconfort (nervous system disorders) / Palpitation (cardiovascular disorders) / Rash / Headache (nervous system disorders) / Increase of transaminase / Muscle pain, back pain / Any adverse events: patients with event (%); for Decrease of blood pressure (cardiovascular disorders) / Flushing (cardiovascular disorders) / Gastrointestinal disorders / Head disconfort (nervous system disorders) / Palpitation (cardiovascular disorders) / Rash / Severe adverse events: placebo 0; for Headache (nervous system disorders) / Serious adverse events: placebo 1 (14%); for Increase of transaminase / Muscle pain, back pain: placebo 2 (29%); for Any adverse events: placebo 4 (57%); for Severe adverse events / Serious adverse events: patients with event
Protocol: Safety evaluations including the evaluation of adverse events (AEs) and serious adverse events (SAEs) were conducted throughout the study. Vital signs, blood and urine tests, and a 12-lead ECG were performed at specified times after administration, with monitoring of ECG being assessed from the beginning of every test drug administration until 2 h after the administration.
All data, except for the PK parameters, were collected using an electronic data collection system (Viedoc) and analyzed by Intellim (Tokyo, Japan), an independent CRO. […] The population included in the safety analysis were all patients who received at least 1 day of administration of the test drug. […] The significant level for each test was 5%. All analyses were performed using SAS version 9.3 (SAS Institute, Cary, NC, USA). […] All data are shown as mean ± standard deviation (SD).

For `CC[C@H](C)[C@H](NC(=O)[C@H](CCC(N)=O)NC(=O)[C@H](Cc1c[nH]cn1)NC(=O)[C@H](C)NC(=O)[C@H](CC(C)C)NC(=O)[C@H](CCCCN)NC(=O)[C@H](CCC(N)=O)NC(=O)[C@@H](NC(=O)[C@@H](NC(=O)[C@@H]1CSSC[C@H](NC(=O)CNC(=O)[C@H](Cc2ccccc2)NC(=O)[C@H](CO)NC(=O)[C@H](CCCNC(=N)N)NC(=O)[C@H](CC(C)C)NC(=O)CNC(=O)[C@H](CCC(N)=O)NC(=O)[C@H](Cc2ccccc2)NC(=O)[C@H](CC(N)=O)NC(=O)[C@H](CC(N)=O)NC(=O)[C@H](CCSC)NC(=O)[C@H](CO)NC(=O)[C@H](CCC(N)=O)NC(=O)[C@H](CCCNC(=N)N)NC(=O)[C@@H](N)Cc2ccc(O)cc2)C(=O)N[C@@H](CCCNC(=N)N)C(=O)N[C@@H](Cc2ccccc2)C(=O)NCC(=O)N[C@@H]([C@@H](C)O)C(=O)N1)[C@@H](C)O)C(C)C)C(=O)N[C@@H](Cc1ccc(O)cc1)C(=O)N[C@@H](CCC(N)=O)C(=O)N[C@@H](Cc1ccccc1)C(=O)N[C@H](C(=O)N[C@@H](CC(=O)O)C(=O)N[C@@H](CCCCN)C(=O)N[C@@H](CC(=O)O)C(=O)N[C@@H](CCCCN)C(=O)N[C@@H](CC(=O)O)C(=O)N[C@@H](CC(N)=O)C(=O)N[C@H](C(=O)N[C@@H](C)C(=O)N1CCC[C@H]1C(=O)N[C@@H](CCCNC(=N)N)C(=O)N[C@@H](CO)C(=O)N[C@@H](CCCCN)C(=O)N[C@H](C(=O)N[C@@H](CO)C(=O)N1CCC[C@H]1C(=O)N[C@@H](CCC(N)=O)C(=O)NCC(=O)N[C@@H](Cc1ccc(O)cc1)C(N)=O)[C@@H](C)CC)C(C)C)[C@@H](C)O` [Adrenomedullin], the “Decrease of blood pressure (cardiovascular disorders)” value (from here on “Decrease of blood pressure”) (AM 5 ng/kg/min, n = 5) was 0, the “Flushing (cardiovascular disorders)” value (AM 5 ng/kg/min, n = 5) was 0 and the Gastrointestinal disorders (AM 5 ng/kg/min, n = 5) was 2 (40%). The “Head disconfort (nervous system disorders)” value (“Head disconfort” for short) (AM 5 ng/kg/min, n = 5) was 0, the “Palpitation (cardiovascular disorders)” value (AM 5 ng/kg/min, n = 5) was 0 and the Rash (AM 5 ng/kg/min, n = 5) was 0. For the same molecule, the “Headache (nervous system disorders)” value (AM 5 ng/kg/min, n = 5) was 3 (60%), the Increase of transaminase (AM 5 ng/kg/min, n = 5) was 0 and the “Muscle pain, back pain” value (AM 5 ng/kg/min, n = 5) was 0. The Any adverse events (AM 5 ng/kg/min, n = 5, n = 7) was 4 (80%), the “Decrease of blood pressure” value (AM 10 ng/kg/min, n = 7) was 1 (14%) and the “Flushing (cardiovascular disorders)” value (AM 10 ng/kg/min, n = 7) was 0. For the same molecule, the Gastrointestinal disorders (AM 10 ng/kg/min, n = 7) was 0, the “Head disconfort” value (AM 10 ng/kg/min, n = 7) was 1 (14%) and the “Palpitation (cardiovascular disorders)” value (AM 10 ng/kg/min, n = 7) was 0. For the same molecule, the Rash (AM 10 ng/kg/min, n = 7) was 0, the “Headache (nervous system disorders)” value (AM 10 ng/kg/min, n = 7) was 4 (57%) and the Increase of transaminase (AM 10 ng/kg/min, n = 7) was 0. For the same molecule, the “Muscle pain, back pain” value (AM 10 ng/kg/min, n = 7) was 0, the Any adverse events (AM 10 ng/kg/min, n = 7) was 6 (86%) and the “Decrease of blood pressure” value (AM 15 ng/kg/min, n = 7) was 1 (14%). For the same molecule, the “Flushing (cardiovascular disorders)” value (AM 15 ng/kg/min, n = 7) was 2 (29%), the Gastrointestinal disorders (AM 15 ng/kg/min, n = 7) was 0 and the “Head disconfort” value (AM 15 ng/kg/min, n = 7) was 2 (29%). For the same molecule, the “Palpitation (cardiovascular disorders)” value (AM 15 ng/kg/min, n = 7) was 1 (14%), the Rash (AM 15 ng/kg/min, n = 7) was 1 (14%) and the “Headache (nervous system disorders)” value (AM 15 ng/kg/min, n = 7) was 4 (57%). The Increase of transaminase (AM 15 ng/kg/min, n = 7) was 1 (14%), the “Muscle pain, back pain” value (AM 15 ng/kg/min, n = 7) was 0 and the Any adverse events (AM 15 ng/kg/min, n = 7) was 6 (86%). For the same molecule, the Severe adverse events (AM 5 ng/kg/min, n = 5) was 0, the Serious adverse events (AM 5 ng/kg/min, n = 5) was 0 and the Severe adverse events (AM 10 ng/kg/min, n = 7) was 0. It also gave a Serious adverse events (AM 10 ng/kg/min, n = 7) of 0, a Severe adverse events (AM 15 ng/kg/min, n = 7) of 0 and a Serious adverse events (AM 15 ng/kg/min, n = 7) of 0.
